According to patent US20080081021A1, “Manganese-enhanced magnetic resonance imaging of neurons using electrical stimulation” (priority 2006, published 2008):
Where two headings read alike, the source gives them in different places.

Legend:
cortical spinal tract = conditions: 24 hours after injection
Protocol: (§1) The experiments were conducted on twelve Sprague-Dawley rats weighing between 300 and 350 g under a protocol approved by the University of Kansas Medical Center Institutional Animal Care and Use Committee. Six rats were studied without electrical stimulation in the cortex and served as the control group. The remaining six rats formed the stimulation group.
The syringe was mounted on a micropositioner attached to a stereotaxic frame. The tip of the glass pipette was lowered perpendicular to the brain surface at the center of the first burr hole and inserted into the cortex through the exposed dura one millimeter below the pial surface. […]
To eliminate this problem, the burr holes in the skull of the rat from the stimulation group were first carefully drained of fluid. […] Once threshold was determined, stimulation was applied at approximately twice the threshold for 90 minutes. […]
The animals were anesthetized using spontaneous inhalation of 4% isoflurane for induction, followed by a mixture of 1.5% isoflurane, 30% oxygen, and air delivered through a nose mask. […] While in the scanner, the physiological condition of the rat was monitored using ECG, respiratory and temperature probes that were connected to an MR-compatible small animal monitoring and gating system (Model 1025, SA Instruments, Inc., Stony Brook, N.Y.). […]

[1] = tested on: rat spinal cord (gray matter, white matter, cortical spinal tract); conditions: for *T1CST: cortical spinal tract in spinal cord; for *T1CST / T1GM / T1WM: 1 M MnCl2 0.2 μL bilateral intracortical, 9.4 T; for T1GM: gray matter of spinal cord, mean±SD, four rats; for T1WM: white matter of spinal cord
Protocol: as §1
The syringe was mounted on a micropositioner attached to a stereotaxic frame. The tip of the glass pipette was lowered perpendicular to the brain surface at the center of the first burr hole and inserted into the cortex through the exposed dura one millimeter below the pial surface. The syringe was emptied slowly to deliver 0.2 μL of the solution over a period of five minutes. To prevent backflow of solution, the pipette was left in place for another five minutes prior to withdrawal. This procedure was repeated for the contralateral motor area through the second burr hole.
To eliminate this problem, the burr holes in the skull of the rat from the stimulation group were first carefully drained of fluid. Electrical stimulation was then applied through a 1 mm diameter stainless steel electrode with the titanium screw serving as reference. The electrode was connected to a DS7 Digitimer constant current stimulator (Digitimer Ltd., Hertfordshire, England) and lowered through the first burr hole on the same side as the screw until it touched to dura. A Grass S48 stimulator (Grass Medical Instruments, Quincy, Mass.) generated the stimulus pulse sequence used to externally trigger the constant current stimulator. Trains of biphasic stimuli (each phase 0.2 ms, negative first) were applied at 100 Hz for an “on” period of 5 seconds followed by an “off” period of 5 seconds. […] Once threshold was determined, stimulation was applied at approximately twice the threshold for 90 minutes. If the strength of the evoked movement declined noticeably, frequency and current values were increased to maintain a constant motor response. These procedures were repeated for the opposite cortex through a second burr hole. With these settings, the total stimulation time was 180 minutes, 90 minutes for each side of the cortex. Immediately after stimulation, the electrodes were removed, and the skin was closed tightly with suture. The animal was then left to recover in its cage.
The animals were anesthetized using spontaneous inhalation of 4% isoflurane for induction, followed by a mixture of 1.5% isoflurane, 30% oxygen, and air delivered through a nose mask. The rat's head was stabilized on a Plexigas holder and positioned into a 6 cm inner diameter volume coil for MRI scanning on a 9.4 T horizontal Varian scanner (Varian Inc., Palo Alto, Calif.). While in the scanner, the physiological condition of the rat was monitored using ECG, respiratory and temperature probes that were connected to an MR-compatible small animal monitoring and gating system (Model 1025, SA Instruments, Inc., Stony Brook, N.Y.). The rat's temperature was kept at about 37° C. by circulating warm air with 40% humidity using a 5 cm diameter plastic tube fitted to the back door of the magnet bore.
The resulting data set consisted of axial images acquired independently at eight different TR values: 50, 100, 250, 500, 750, 2000, 3500, and 6000 ms with averages=10, 6, 6, 2, 2, 2, 2 and 2, respectively, and TE=12 ms. The other acquisition parameters were image matrix=128×128, field-of-view (FOV)=23×23 mm^2 and slice thickness=4 mm. The acquired data were analyzed quantitatively to produce a parametric T1 map of the spinal cord by following the procedures described previously in Bilgen et al., Ex vivo magnetic resonance imaging of rat spinal cord at 9.4 T, Magn. Reson. Imaging 23:601-605 (2005).
T1-maps were produced for four rats from each of the stimulated and control groups.

[2] = control rats without electrical stimulation

## manganese chloride
Cortical spinal tract; non-stimulated rat
  manganese enhancement of the cortical spinal tract: fades away as the cortical spinal tract approaches the spinal cord
Cortical spinal tract; with electrical stimulation of the cortex
  labeling of the cortical spinal tract in the spinal cord: more robust labeling of the cortical spinal tract in the spinal cord
[1]; [2]
  *T1CST: 1.43 ± 0.09 s
  T1GM: 1.55 ± 0.05 s
  T1WM: 1.53 ± 0.06 s
[1]; electrically stimulated rats
  *T1CST: 1.24 ± 0.08 s
  T1GM: 1.54 ± 0.06 s
  T1WM: 1.51 ± 0.07 s
[1]; stimulated vs non-stimulated rats, both given MnCl2
  T1 in the cortical spinal tract shorter in electrically stimulated rats compared to controls: about 20%
